Measurements published in patent US20130177994A1, “METHODS FOR QU[…] DETERMINATION OF THE d- AND l- ENANTIOMERS OF AMPHETAMINE AND METHAMPHETAMINE” (CLINICAL REFERENCE LABORATORY, INC., priority 2012, published 2013).

Experiment: Donor sample analysis by chiral LC/MS/MS (oral fluid)
Assay type: in vivo
Text: HPLC conditions were adapted from a separation method posted on the manufacturer's website (Sigma-Aldrich) using UV detection. A Supelco Astec Chirobiotic® V2 chiral column (5 μm particle size, 2.1×250 mm) from Sigma-Aldrich was used to achieve the chiral separation of the enantiomers for amphetamine and methamphetamine. The Chirobiotic® V2 column employs vancomycin as the chiral stationary phase to induce separation. The mobile phase consisted of 99.89:0.1:0.01 methanol:acetic acid:ammonium hydroxide (v/v/v) with a flow rate of 0.5 mL/min. The column temperature was 30° C. The HPLC employed was a Shimadzu Nexera UPLC system (Kyoto, Japan) operating at typical HPLC pressures. The injection volume for the method was 5 μL.
Detection was performed by an API 4000 triple-quadrupole mass spectrometer from AB Sciex (Foster City, Calif., USA). Column eluent was introduced into the mass spectrometer using the Turbolonspray® source operating in the positive ionization mode. Multiple-reaction monitoring (MRM) was used to analyze and detect each compound with a high degree of selectivity. The ionspray voltage was set at 5000V and the source temperature was 550° C. Parameters such as declustering potential (DP), collision energy (CE) and entrance and exit potentials (EP and CXP) were optimized for each analyte. The total analysis time for the method is 10 minutes.
Sample extraction was accomplished by aliquoting 200 μL of oral fluid sample into a 16×75 mm culture tube and adding 50 μL of internal standard (200 ng/mL racemic D11-amphetamine and […]). The sample was then treated with 25 μL of 10% sodium periodate solution and allowed to sit for 30 minutes after mixing. A 500 μL aliquot of 0.1 M phosphoric acid was added to each sample and mixed prior to transfer to the SPE wells.
The Agilent SPEC-DAU 96-well SPE plate was conditioned with 1 mL of methanol followed by 0.5 mL of 0.1 M phosphoric acid. Nitrogen gas was used to apply positive pressure for all SPE steps to induce a flow rate of about 1 to 2 mL per minute. […]
Several donor samples have been analyzed by this method. […]

SMILES	% d-amphetamine in samples containing amphetamine (9 out of 25 donor samples, consistent with Adderall use)	% d-amphetamine in samples containing amphetamine (the remaining donor samples) [%]	% d-methamphetamine in samples containing methamphetamine (all donor samples containing methamphetamine) [%]
C[C@H](N)Cc1ccccc1 [d-Amphetamine, d-amphetamine]	approximately 70%	100	–
CN[C@@H](C)Cc1ccccc1 [d-Methamphetamine, d-methamphetamine]	–	–	> 90
